Test results as given in the NIST ThermoML archive (doi:10.1021/je500977g).

Test: mn = molality of the nth substance listed, in mol/kg
Settings: Liquid

C[N+](C)(C)[O-] [trimethylamine oxide] + O
mass density [kg/m3]
Settings | 278.15 K | 288.15 K | 298.15 K
101 kPa, Vibrating tube method, m1 = 0.0875 | 1000.16 | 999.28 | 997.22
101 kPa, Vibrating tube method, m1 = 0.1707 | 1000.36 | 999.46 | 997.4
101 kPa, Vibrating tube method, m1 = 0.2465 | 1000.55 | 999.63 | 997.57
101 kPa, Vibrating tube method, m1 = 0.3259 | 1000.75 | 999.82 | 997.74
101 kPa, Vibrating tube method, m1 = 0.4018 | 1000.95 | 1000 | 997.91
101 kPa, Vibrating tube method, m1 = 0.5862 | 1001.48 | 1000.47 | 998.35
101 kPa, Vibrating tube method, m1 = 0.7963 | 1002.11 | 1001.02 | 998.86
101 kPa, Vibrating tube method, m1 = 1.039 | 1002.89 | 1001.71 | 999.49
101 kPa, Vibrating tube method, m1 = 1.373 | 1004.01 | 1002.7 | 1000.4
101 kPa, Vibrating tube method, m1 = 1.923 | 1006.05 | 1004.48 | 1002.01
101 kPa, Vibrating tube method, m1 = 3.259 | 1011.69 | 1009.4 | 1006.44
101 kPa, Vibrating tube method, m1 = 4.325 | 1016.41 | 1013.58 | 1010.2
10000 kPa, Constant-volume piezometry, m1 = 0.1707 | 1005.1 | 1003.98 | 1001.77
10000 kPa, Constant-volume piezometry, m1 = 0.3259 | 1005.43 | 1004.27 | 1002.05
10000 kPa, Constant-volume piezometry, m1 = 0.5862 | 1006.05 | 1004.81 | 1002.57
10000 kPa, Constant-volume piezometry, m1 = 1.039 | 1007.25 | 1005.85 | 1003.56
10000 kPa, Constant-volume piezometry, m1 = 1.373 | 1008.19 | 1006.74 | 1004.38
10000 kPa, Constant-volume piezometry, m1 = 1.923 | 1009.95 | 1008.34 | 1005.83
10000 kPa, Constant-volume piezometry, m1 = 3.259 | 1015.17 | 1012.89 | 1009.93
10000 kPa, Constant-volume piezometry, m1 = 4.325 | 1019.59 | 1016.87 | 1013.44
25000 kPa, Constant-volume piezometry, m1 = 0.1707 | 1012.1 | 1010.63 | 1008.19
25000 kPa, Constant-volume piezometry, m1 = 0.3259 | 1012.31 | 1010.83 | 1008.39
25000 kPa, Constant-volume piezometry, m1 = 0.5862 | 1012.75 | 1011.2 | 1008.79
25000 kPa, Constant-volume piezometry, m1 = 1.039 | 1013.68 | 1012.01 | 1009.58
25000 kPa, Constant-volume piezometry, m1 = 1.373 | 1014.44 | 1012.71 | 1010.25
25000 kPa, Constant-volume piezometry, m1 = 1.923 | 1015.88 | 1014.05 | 1011.48
25000 kPa, Constant-volume piezometry, m1 = 3.259 | 1020.33 | 1018.05 | –
25000 kPa, Constant-volume piezometry, m1 = 4.325 | 1024.4 | 1021.69 | –
50000 kPa, Constant-volume piezometry, m1 = 0.1707 | 1023.24 | 1021.25 | –
50000 kPa, Constant-volume piezometry, m1 = 0.3259 | 1023.31 | 1021.31 | –
50000 kPa, Constant-volume piezometry, m1 = 0.5862 | 1023.5 | 1021.47 | –
50000 kPa, Constant-volume piezometry, m1 = 1.039 | 1023.97 | 1021.88 | –
50000 kPa, Constant-volume piezometry, m1 = 1.373 | 1024.42 | 1022.31 | –
50000 kPa, Constant-volume piezometry, m1 = 1.923 | 1025.37 | 1023.22 | –
50000 kPa, Constant-volume piezometry, m1 = 3.259 | 1028.7 | 1026.33 | –
50000 kPa, Constant-volume piezometry, m1 = 4.325 | 1032.12 | 1029.39 | –
75000 kPa, Constant-volume piezometry, m1 = 0.1707 | 1033.79 | 1031.35 | –
75000 kPa, Constant-volume piezometry, m1 = 0.3259 | 1033.7 | 1031.27 | –
75000 kPa, Constant-volume piezometry, m1 = 0.5862 | 1033.63 | 1031.21 | –
75000 kPa, Constant-volume piezometry, m1 = 1.039 | 1033.68 | 1031.28 | –
75000 kPa, Constant-volume piezometry, m1 = 1.373 | 1033.85 | 1031.46 | –
75000 kPa, Constant-volume piezometry, m1 = 1.923 | 1034.37 | 1031.97 | –
75000 kPa, Constant-volume piezometry, m1 = 3.259 | 1036.77 | 1034.24 | –
75000 kPa, Constant-volume piezometry, m1 = 4.325 | 1039.49 | 1036.73 | –
100000 kPa, Constant-volume piezometry, m1 = 0.1707 | 1043.78 | 1040.95 | –
100000 kPa, Constant-volume piezometry, m1 = 0.3259 | 1043.57 | 1040.74 | –
100000 kPa, Constant-volume piezometry, m1 = 0.5862 | 1043.26 | 1040.48 | –
100000 kPa, Constant-volume piezometry, m1 = 1.039 | 1042.96 | 1040.22 | –
100000 kPa, Constant-volume piezometry, m1 = 1.373 | 1042.87 | 1040.16 | –
100000 kPa, Constant-volume piezometry, m1 = 1.923 | 1043.01 | 1040.3 | –
100000 kPa, Constant-volume piezometry, m1 = 3.259 | 1044.64 | 1041.8 | –
100000 kPa, Constant-volume piezometry, m1 = 4.325 | 1046.85 | 1043.78 | –
